Data: PubChem BioAssay (NCI)
Several values for one entry are separate records, joined by “and”; a condition that tells them apart may be missing. Identical values can stand only once.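 All cell lines were grown in 96-well plates and treated with compound for 48 hours. At the GI50, growth is halved. Definition used: TGI = concentration required for complete inhibition of growth.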

How the values were obtained:
Assay in all cases: NCI anticancer screen, dose series, 48 h
LOX IMVI melanoma = test system: LOX IMVI melanoma
SK-MEL-5 melanoma = test system: SK-MEL-5 melanoma
RXF 393 renal = test system: RXF 393 renal
HCT-15 colon = test system: HCT-15 colon
BT-549 breast = test system: BT-549 breast
SK-MEL-28 melanoma = test system: SK-MEL-28 melanoma
SK-MEL-2 melanoma = test system: SK-MEL-2 melanoma
NCI/ADR-RES ovarian = test system: NCI/ADR-RES ovarian
U251 CNS = test system: U251 CNS
TK-10 renal = test system: TK-10 renal
M14 melanoma = test system: M14 melanoma
COLO 205 colon = test system: COLO 205 colon
IGROV1 ovarian = test system: IGROV1 ovarian
NCI-H460 lung = test system: NCI-H460 lung
HL-60(TB) leukemia = test system: HL-60(TB) leukemia

Compound	TGI (LOX IMVI melanoma)	TGI (SK-MEL-5 melanoma) [µM]	TGI (RXF 393 renal) [µM]	TGI (HCT-15 colon) [µM]	TGI (BT-549 breast) [µM]	TGI (SK-MEL-28 melanoma) [µM]	TGI (SK-MEL-2 melanoma) [µM]	TGI (NCI/ADR-RES ovarian)	TGI (U251 CNS) [µM]	TGI (TK-10 renal)	TGI (M14 melanoma) [µM]	TGI (COLO 205 colon) [µM]	TGI (IGROV1 ovarian)	TGI (NCI-H460 lung) [µM]	TGI (HL-60(TB) leukemia)	GI50 (SK-MEL-28 melanoma) [µM]	GI50 (SK-MEL-2 melanoma) [µM]	GI50 (NCI/ADR-RES ovarian) [µM]	GI50 (IGROV1 ovarian) [µM]
CCc1n[nH]c(=O)n1/N=C/c1ccccc1O	> 100 µM	> 100	> 100	> 100	> 100	> 100	> 100	> 100 µM	> 100	> 100 µM	> 100	> 100	> 100 µM						
N#CC(C(=O)c1cccnc1Cl)c1nc2cc(C(F)(F)F)ccc2s1 (stereo unspecified)	> 100 µM	> 100	> 100	> 100	> 100	> 100		> 100 µM	> 100	> 100 µM	> 100	> 100	> 100 µM	> 100					
O=C1C[C@H](c2ccccc2)O[C@@H](c2ccccc2)C1	> 100 µM	> 100	> 100	> 100	> 100	> 100	> 100	> 100 µM	> 100		> 100	> 100	> 100 µM	> 100					
COc1ccccc1NC(=S)NN=C(C)c1cccc(C(C)=NNC(=S)Nc2ccccc2OC)n1	> 100 µM	32.7	47.6	> 100		> 100	> 100	34.7 µM	> 100		25.8	> 100	> 100 µM	> 100	99.5 µM				
O=c1oc2ccccc2nc1/C=C(\O)c1ccc(Cl)cc1		> 100	> 100	> 100	> 100		> 100	> 100 µM	> 100	> 100 µM	> 100	> 100	> 100 µM	> 100					
Cc1nc(N)c(N2CCN(C(=O)O)CC2)c(=O)[nH]1	> 100 µM			> 100	> 100	> 100	> 100	> 100 µM	> 100	> 100 µM	> 100	> 100		> 100	> 100 µM				
CC1(C)O[C@@H]([C@H](O)CO)[C@H](O)[C@@H](C2SCCCS2)O1		> 100	> 100	> 100	> 100	> 100	> 100	> 100 µM	> 100	> 100 µM	> 100	> 100	> 100 µM	> 100					
COc1ccc(N=N/C(=N/NC(=O)c2ccc(C)cc2)c2ccc(N(CCC#N)CCC#N)cc2OC)cc1	> 100 µM	> 100	> 100	> 100	> 100	> 100	> 100	> 100 µM	> 100	> 100 µM	> 100	> 100	> 100 µM	> 100					
O=c1[nH]c(Nc2ccc(Cl)c(C(F)(F)F)c2)nc2nc[nH]c12	81.7 µM	> 100	> 100	> 100	> 100		91.2	> 100 µM	> 100	> 100 µM	> 100	> 100	> 100 µM	> 100					
O=c1[nH]c(=O)n(COCc2ccccc2)c2ccsc12	> 100 µM	> 100	> 100	> 100	> 100	> 100	> 100	> 100 µM	> 100	> 100 µM	> 100	> 100	> 100 µM	> 100					
C[N+]1(CCC(=O)c2ccco2)CC2CCC(CC2)C1 (stereo unspecified)	> 100 µM	> 100	> 100	> 100	> 100	> 100	> 100	> 100 µM	> 100	> 100 µM	> 100	> 100	> 100 µM	> 100					
C#C[C@]1(O)CC[C@H]2[C@@H]3CCC4=C/C(=N/OCCN(C)C)CC[C@]4(C)[C@H]3CC[C@@]21C	> 100 µM	78.3		> 100	> 100	> 100	> 100	> 100 µM	> 100	> 100 µM	35.2	> 100	> 100 µM	> 100					
O=[N+]([O-])c1cccc2nc3ccccc3c(NCCCn3ccnc3[N+](=O)[O-])c12	0.13 µM and 0.0216 µM		0.000768					0.495 µM and 0.348 µM	0.00178	0.0489 µM and 0.0392 µM	0.000256		0.212 µM and 0.412 µM	0.0137	0.0168 µM and 0.0332 µM	45.4	0.022	0.0125	0.0419
CC(=O)O[C@H]1C(=O)[C@@]2(C)[C@H]([C@H](OC(=O)c3cccc([N+](=O)[O-])c3)[C@]3(O)C[C@H](OC(=O)[C@H](O)[C@@H](NC(=O)c4ccccc4)c4ccccc4)C(C)=C1C3(C)C)[C@]1(OC(C)=O)CO[C@@H]1C[C@@H]2O	> 25 µM	> 9.01		> 25	> 25	> 25	> 25	> 25 µM		> 21.8 µM	8.52		> 25 µM	> 25	< 0.0025 µM				
CC(=O)Nc1ccc(NCC(=O)Nn2cnc3ccc(S(=O)(=O)Nc4ccc(NC(C)=O)cc4)cc3c2=O)cc1	> 100 µM			> 100	> 100	> 100	> 100	> 100 µM	> 100	> 100 µM	> 100	> 100	> 100 µM	> 100	> 100 µM				
CC(C)(O)/C=C\P(=O)(O)O	> 100 µM	> 100	> 100	> 100		> 100	> 100	> 100 µM	> 100	> 100 µM	> 100	> 100	> 100 µM	> 100					
CCOC(=O)c1nc2ccc(C(F)(F)F)cc2nc1NCc1ccc(OC)cc1	> 100 µM	> 100	> 100	> 100	> 100		> 100	> 100 µM	> 100	> 100 µM	> 100	> 100	> 100 µM	> 100					
CCc1ccccc1N=NC(=O)NNc1ccccc1CC	33.7 µM	28.6		38.1	34.3	32.2	31.7		29.6	50.1 µM	34.7		26 µM	34.5	56.9 µM				
Nc1c(C(=O)O)nnc2cc(Cl)c(Cl)cc12	> 100 µM	> 100		> 100	> 100		> 100	> 100 µM	> 100	> 100 µM	> 100	> 100	> 100 µM	> 100	> 100 µM				
COC(=O)C(N)CCCC(N)C(=O)NC(C)C(=O)NC(CCC(=O)NCCNCCNc1c2ccccc2nc2cccc([N+](=O)[O-])c12)C(N)=O (stereo unspecified)	43 µM	18.1	28.5	48.6	38.5	31.1	30.6	> 100 µM	> 41.1	> 94.3 µM	26.2	20.4	> 100 µM	55					
Cc1ccn2c(=O)cc(CN3CCOCC3)nc2c1	> 100 µM			> 100	> 100	> 100	> 100	> 100 µM	> 100	> 100 µM	> 100	> 100	> 100 µM	> 100	> 100 µM				
CN(C)CCCN1C(=S)N(CCCN(C)C)c2c3ccccc3nc3c([N+](=O)[O-])ccc1c23	17.9 µM	18.8	17.8	21.9	36.4	29.9	34.8	27.9 µM	20.7	24.2 µM	26.8	4.8	16.9 µM	18					
c1ccc(-c2nnn3c2NC2=C(CCCC2)C3c2ccccc2)cc1 (stereo unspecified)	27 µM	30.1	34.9	3.04			36	52.4 µM	26		35.5	30.2	40.2 µM	52.8	37.2 µM				
CC1=CC(=O)CC(C)(C)C1/C=C/C(C)=C/C=C/C(C)=C/C=C/C=C(C)/C=C/C=C(C)/C=C/C1C(C)=CC(=O)CC1(C)C (stereo unspecified)	85.6 µM	> 100	> 100	85		> 100	> 100	> 100 µM	> 100	> 100 µM	> 100		> 100 µM	> 100	> 100 µM				
CC(C)=CCC[C@@H](C)/C=C/C=C(\C)C(=O)CC[C@@H]1CC[N@+]2(C)CCCC[C@H]12	> 100 µM	> 100	> 100	> 100	> 100	> 100	> 100	> 100 µM	> 100	> 100 µM	> 100	> 100	> 100 µM	> 100					
